Patent US5391540A, “Substituted pyridine compounds” (Rohm and Haas Company, priority 1993, dated 1995)
Several values for one entry are separate records, joined by “and”; a condition that tells them apart may be missing. Equal entries are not always repeated.

Tests used:
Assay type in all cases: in vivo
Dobr = assay: plant injury after spraying emerged plants (Table D)
Source text: (§1) Topsoil (silt loam) is sieved through a screen having 1.27 cm openings. In some of the tests the soil was mixed with fertilizer (1225 g/cu. m of 12/5/9 containing isobutylidene diurea), while in other tests the fertilizer was omitted. This mixture is steam sterilized and then placed in aluminum pans 6.985 cm deep having ten holes in the bottom each 0.635 cm in diameter. The soil mixture is compacted to a depth of 1.27 cm. from the top of the pan. A predetermined number of seeds of each of several dicotyledonous and monocotyledonous annual plant species and/or vegetative propagules for the perennial plant species are placed on the soil and pressed into the soil surface. The seeds and/or vegetative propagules are covered with 1.27 cm of a mixture of 50% topsoil and 50% of a mixture of Canadian sphagnum peat moss, vermiculite and a wetting agent. The pans are then placed on a capillary mat on a greenhouse bench and subirrigated as needed. After the plants reach the desired stage (9 to 14 days, 1 to 3 true leaf stage), each pan (except the control pans) is removed to a spraying chamber and sprayed by means of an atomizer, operating at a spray pressure of 170.3 kPa ([…]) at the application rates noted in Table D. In the spray solution is an amount of an emulsifying agent mixture (35% butylamine salt of dodecylbenzenesulfonic acid and 65% tall oil condensed with ethylene oxide in the ratio of 11 mols of ethylene oxide/mol of tall oil) to give a spray solution or suspension. The spray solution or suspension contains a sufficient amount of the candidate chemical in order to give application rates of the active ingredient corresponding to those shown in Table D below while applying a total amount of solution or suspension equivalent to 1870 L/Ha (200 gallons/acre). The pans are returned to the greenhouse and watered as before and the injury to the plants as compared to the control pans is observed at approximately 10-14 days (usually 11 days).
(§2) In the following Table D the legends used to identify the plant species are the same as those used in the preceding Table B.

Vele = assay: as above; parameters: scale not given here
Summary of the method: (§3)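 Injury to emerged plants was assessed after spraying. Plants came from seeds or propagules sown into sterilized, sieved silt-loam topsoil under a 1.27 cm layer of 50% topsoil with peat moss, vermiculite and wetting agent, then kept on greenhouse capillary mats with subirrigation.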

Wibw = assay: as above; parameters: scale not given here
Summary of the method: as §3

Hese = assay: as above; parameters: scale not given here
Summary of the method: as §3

Cotz = assay: as above; parameters: scale not given here
Source text: as §1, §2

Jiwe = assay: as above; parameters: scale not given here
Source text: as §1, §2

Rape = assay: as above; parameters: scale not given here
Source text: as §1, §2

Indian Mustard = assay: Pre-emergent herbicidal activity (Table A); details: Brassica juncea, pre-emergence, Inmu, 11.2 kg/ha, 10-14 days, read-out: herbicidal rating (% inhibition)
Summary of the method: (§4)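 Compound incorporated into the cover-soil layer over sown seed at a rate equivalent to 11.2 kg/ha (acetone or water carrier). Greenhouse growth with watering as needed; ratings reflect percent inhibition per species, recorded around day 11 (range 10–14).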

Annual Bluegrass = assay: Pre-emergent herbicidal activity (Table A); details: pre-emergence, Anbg, 11.2 kg/ha, 10-14 days, read-out: herbicidal rating (% inhibition)
Summary of the method: as §4

Wild Buckwheat = assay: Pre-emergent herbicidal activity (Table A); details: Fallopia convolvulus, pre-emergence, Wibw, 11.2 kg/ha, 10-14 days, read-out: herbicidal rating (% inhibition)
Summary of the method: as §4

Seedling Johnsongrass = assay: Pre-emergent herbicidal activity (Table A); details: Sorghum halepense, pre-emergence, Sejg, 11.2 kg/ha, 10-14 days, read-out: herbicidal rating (% inhibition)
Summary of the method: as §4

Compound | plant injury rating, Dobr (Dobr; 0.0701 kg/ha) | plant injury rating, Dobr (Dobr; 0.2803 kg/ha) | plant injury rating, Dobr (Dobr; 1.1210 kg/ha) | plant injury rating, Vele (Vele; 0.0701 kg/ha) | plant injury rating, Vele (Vele; 0.2803 kg/ha) | plant injury rating, Vele (Vele; 1.1210 kg/ha) | plant injury rating, Wibw (Wibw; 0.0701 kg/ha) | plant injury rating, Wibw (Wibw; 0.2803 kg/ha) | plant injury rating, Wibw (Wibw; 1.1210 kg/ha) | plant injury rating, Hese (Hese; 0.0701 kg/ha) | plant injury rating, Hese (Hese; 0.2803 kg/ha) | plant injury rating, Hese (Hese; 1.1210 kg/ha) | plant injury rating, Cotz (Cotz; 0.0701 kg/ha) | plant injury rating, Jiwe (Jiwe; 0.0701 kg/ha) | plant injury rating, Jiwe (Jiwe; 0.2803 kg/ha) | plant injury rating, Jiwe (Jiwe; 1.1210 kg/ha) | plant injury rating, Rape (Rape; 0.0701 kg/ha) | plant injury rating, Cotz (Cotz; 0.2803 kg/ha) | plant injury rating, Rape (Rape; 1.1210 kg/ha) | plant injury rating, Dobr (Dobr; 5.6050 kg/ha) | further results
COC(=O)c1c(O)nc(C(F)(F)F)c(C(=O)OC)c1CC(C)C [Compound 1, 3,5-pyridinedicarboxylic acid, 2-hydroxy-4-(2-methylpropyl)-6-(trifluoromethyl)-, dimethyl ester] | 0 | 0 | 0 | 1 | 2 | 2 | 0 | 1 | 2 | 1 | 2 | 2 | 0 | 0 | 2 and 1 | 2 | 1 |  |  |  | plant injury rating, Dobr (Dobr; 5.3808 kg/ha): 0; plant injury rating, Jiwe (Jiwe; 5.3808 kg/ha): 4 and 3
COC(=O)c1c(OC)nc(C(F)(F)F)c(C2=NCCS2)c1CC(C)C [Compound 50, 3-pyridinecarboxylic acid, 5-(4,5-dihydro-2-thiazolyl)-2-methoxy-4-(2-methylpropyl)-6-(trifluoromethyl)-, methyl ester] | 0 |  | 0 | 2 |  |  | 1 | 3 |  | 2 |  |  | 1 | 2 | 2 | 2 and 3 |  | 2 | 3 |  | plant injury rating, Dobr (Dobr; 5.3808 kg/ha): 0; plant injury rating, Vele (Vele; 5.3808 kg/ha): 3; plant injury rating, Wibw (Wibw; 5.3808 kg/ha): 3; plant injury rating, Hese (Hese; 5.3808 kg/ha): 3; plant injury rating, Cotz (Cotz; 5.3808 kg/ha): 3; plant injury rating, Jiwe (Jiwe; 5.3808 kg/ha): 3; plant injury rating, Rape (Rape; 5.3808 kg/ha): 3
COC(=O)c1c(OC)nc(C(F)(F)F)c(C2SCCS2)c1CC(C)C [Compound 93, 3-pyridinecarboxylic acid, 5-(1,3-dithiolan-2-yl)-2-methoxy-4-(2-methylpropyl)-6-(trifluoromethyl)-, methyl ester] | 0 | 0 | 0 | 0 | 0 | 2 | 0 | 0 | 0 | 1 | 3 | 3 | 0 | 2 | 2 | 3 | 0 | 0 | 3 | 0 | inhibition at 11200 g/ha (Indian Mustard): 75 to 100%; inhibition at 11200 g/ha (Annual Bluegrass): 75 to 100%; inhibition at 11200 g/ha (Wild Buckwheat): 75 to 100%; inhibition at 11200 g/ha (Seedling Johnsongrass): 75 to 100%; plant injury rating, Vele (Vele; 5.6050 kg/ha): 3; plant injury rating, Wibw (Wibw; 5.6050 kg/ha): 0; plant injury rating, Hese (Hese; 5.6050 kg/ha): 3; plant injury rating, Cotz (Cotz; 1.1210 kg/ha): 0; plant injury rating, Cotz (Cotz; 5.6050 kg/ha): 2; plant injury rating, Jiwe (Jiwe; 5.6050 kg/ha): 3; plant injury rating, Rape (Rape; 0.2803 kg/ha): 2; plant injury rating, Rape (Rape; 5.6050 kg/ha): 3
COC(=O)c1c(OC)nc(C(F)(F)F)c(C(=O)NCCCBr)c1CC(C)C [Compound 97, 3-pyridinecarboxylic acid, 5-[[(3-bromopropyl)amino)carbonyl]-2-methoxy-4-(2-methylpropyl)-6-(trifluoromethyl)-, methyl ester] | 0 | 0 | 0 | 0 | 0 | 0 | 0 | 0 | 0 | 0 | 0 | 0 | 0 | 0 | 0 | 0 | 0 | 0 | 0 | 0 | inhibition at 11200 g/ha (Indian Mustard): 75 to 100%; inhibition at 11200 g/ha (Annual Bluegrass): 75 to 100%; inhibition at 11200 g/ha (Wild Buckwheat): 50 to 74%; inhibition at 11200 g/ha (Seedling Johnsongrass): 75 to 100%; plant injury rating, Vele (Vele; 5.6050 kg/ha): 0; plant injury rating, Wibw (Wibw; 5.6050 kg/ha): 0; plant injury rating, Hese (Hese; 5.6050 kg/ha): 0; plant injury rating, Cotz (Cotz; 1.1210 kg/ha): 0; plant injury rating, Cotz (Cotz; 5.6050 kg/ha): 0; plant injury rating, Jiwe (Jiwe; 5.6050 kg/ha): 1; plant injury rating, Rape (Rape; 0.2803 kg/ha): 0; plant injury rating, Rape (Rape; 5.6050 kg/ha): 0
COC(=O)c1c(OC)nc(C(F)(F)F)c(C2=NCCCS2)c1CC(C)C [Compound 98, 3-pyridinecarboxylic acid, 5-(5,6-dihydro-4H-1,3-thiazin-2-yl)-2-methoxy-4-(2-methylpropyl)-6-(trifluoromethyl)-, methyl ester] | 0 | 0 | 0 | 1 | 2 | 2 | 0 | 0 | 1 | 1 | 2 | 2 | 0 | 2 | 2 | 3 | 0 | 0 | 1 | 0 | inhibition at 11200 g/ha (Indian Mustard): 75 to 100%; inhibition at 11200 g/ha (Annual Bluegrass): 75 to 100%; inhibition at 11200 g/ha (Wild Buckwheat): 75 to 100%; inhibition at 11200 g/ha (Seedling Johnsongrass): 75 to 100%; plant injury rating, Vele (Vele; 5.6050 kg/ha): 3; plant injury rating, Wibw (Wibw; 5.6050 kg/ha): 3; plant injury rating, Hese (Hese; 5.6050 kg/ha): 3; plant injury rating, Cotz (Cotz; 1.1210 kg/ha): 1; plant injury rating, Cotz (Cotz; 5.6050 kg/ha): 2; plant injury rating, Jiwe (Jiwe; 5.6050 kg/ha): 3; plant injury rating, Rape (Rape; 0.2803 kg/ha): 0; plant injury rating, Rape (Rape; 5.6050 kg/ha): 3
